Test results: patent US11690824B2, “Antibacterial compounds” (THE GENERAL HOSPITAL CORPORATION, priority 2018, dated 2023)

Tests used:
GUVs DOPC/DOPG (7:3) = test: Giant unilamellar vesicles (GUVs), observation of compound effects; settings: 4 μg/ml (1× MIC)
Description: Preparation of giant unilamellar vesicles (GUVs) and observation of compound effects on GUVs. GUVs were prepared by the electroformation method described previously. Dioleoyl-glycero-phosphocholine (DOPC), Dioleoyl-glycero-phosphoglycerol (DOPG) and Dioleoyl-glycero-phosphoethanolamine-N-lissamine rhodamine B sulfonyl (18:1 Liss Rhod PE) were purchased from Avanti Polar Lipids (Alabaster, Ala., USA). 4 mM of a lipid mixture consisting of DOPC/DOPG/18:1 Liss Rhod PE (7:3:0.005) was dissolved in chloroform. Indium tin oxide (ITO)-coated slides (50×75×1.1 mm, Delta Technologies, Loveland, Colo., USA) were coated with 40 μL of the lipid mixture and dried in a vacuum chamber for 2 h to remove chloroform. An electroformation chamber was made by placing a 2 mm thick Teflon spacer between the two lipid-coated ITO slides. After adding 2 mL of 100 mM sucrose into the electrofomation chamber, the chamber was sealed with binder clips, and then connected to an AC field function generator. The swelling of the lipid bilayers was facilitated by applying an electric AC-field (10 Hz). […] GUVs were detached from surfaces by reducing the AC-field from 10 Hz to 5 Hz for 20 min. The GUV suspension was diluted (1:30) in a 100 mM glucose solution. 49 μL of the diluted GUV suspension (˜100 vesicles) was added to a black, clear-bottom 384-well plate (Corning no. 3712). […]

MRSA MW2 = test: SYTOX Green membrane permeability assay; type: cell-based, S. aureus
Description: SYTOX Green membrane permeability assay. […] The washed cells were adjusted to OD600=0.4 with PBS. SYTOX Green (Molecular Probes, Waltham, Mass., USA) was added to 10 mL of the diluted bacterial suspension to a final concentration of 5 μM and incubated for 30 min at room temperature in the dark. 50 μL of the bacteria/SYTOX Green suspension was mixed with 50 μl of PBS containing twice the desired concentrations of compounds in black, clear-bottom, 96-well plates (Corning no. 3904). Fluorescence was measured at room temperature using a spectrophotometer (SpectraMax M2, Molecular Devices), with excitation and emission wavelengths of 485 nm and 525 nm, respectively. All experiments were conducted in biological triplicate.

SMILES: O=C(O)c1c(Sc2ccccc2)c2cc(Cl)ccc2n1Cc1ccc(Cl)cc1 [nTZDpa]
- time to formation of lipid aggregates on the surface of GUVs (GUVs DOPC/DOPG (7:3)): 10 s
- time to rupture of GUVs (GUVs DOPC/DOPG (7:3)): 60 s
- concentration of maximum SYTOX Green fluorescence (MRSA MW2): 16 µg/mL
